# According to PubChem BioAssay AID1411 (The Scripps Research Institute Molecular Screening Center, 2008):
# Calls of active or inactive are those of the source. No rule for the calls is given here.
# Biological target: Signal transducer and activator of transcription 1-alpha/beta (Homo sapiens) (UniProt P42224)
# Test: STAT1 transcription blockade – cell-based, NIH 3T3, luciferase reporter, counter-screen for STAT3 inhibitor project, dose response (AID 1411)
# Settings: NIH 3T3 fibroblasts, counterscreen
# Sequence of Signal transducer and activator of transcription 1-alpha/beta (Homo sapiens) (P42224 whole entry, looked up): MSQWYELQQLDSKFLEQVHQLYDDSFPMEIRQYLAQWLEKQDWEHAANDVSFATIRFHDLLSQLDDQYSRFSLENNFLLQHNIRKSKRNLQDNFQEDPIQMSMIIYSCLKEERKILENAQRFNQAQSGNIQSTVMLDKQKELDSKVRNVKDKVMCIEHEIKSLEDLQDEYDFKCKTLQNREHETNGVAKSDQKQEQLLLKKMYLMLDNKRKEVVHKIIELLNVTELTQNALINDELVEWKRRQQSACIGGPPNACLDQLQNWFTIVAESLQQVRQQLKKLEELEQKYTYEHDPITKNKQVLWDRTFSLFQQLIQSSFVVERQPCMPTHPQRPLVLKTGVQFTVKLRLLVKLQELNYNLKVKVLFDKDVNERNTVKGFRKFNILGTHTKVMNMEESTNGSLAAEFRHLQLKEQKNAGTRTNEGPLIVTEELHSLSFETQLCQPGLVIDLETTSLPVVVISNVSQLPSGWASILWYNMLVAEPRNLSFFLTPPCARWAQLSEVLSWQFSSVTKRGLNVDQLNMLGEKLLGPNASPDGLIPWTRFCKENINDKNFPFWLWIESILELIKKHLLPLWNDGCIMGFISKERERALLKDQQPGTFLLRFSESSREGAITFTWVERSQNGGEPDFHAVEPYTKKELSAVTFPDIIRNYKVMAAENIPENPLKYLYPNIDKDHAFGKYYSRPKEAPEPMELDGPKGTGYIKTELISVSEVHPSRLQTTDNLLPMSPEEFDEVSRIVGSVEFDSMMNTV
row,Structure (SMILES),IC50
1,COc1ccc2nc3c(cc2c1)c(NC(=O)c1cccs1)nn3CC(C)C,> 55.7 µM (inactive)
2,O=C(Nc1cccc(O)c1)c1noc2c1CCc1ccccc1-2,inactive
3,O=C(Nc1ccc(Oc2ccccc2)cc1)c1cnc2n(c1=O)CCS2,> 55.7 µM (inactive)
4,CSc1ccc(NC(=O)N2CCN(c3nc4ccccc4s3)CC2)cc1,> 55.7 µM (inactive)
5,CCC(C)NC(=S)Nc1ccc(C(=O)OC)cc1 (stereo not drawn),> 55.7 µM (inactive)
6,Clc1ccc(CSc2nnc(Cn3cnc4ccccc43)o2)cc1,> 55.7 µM (inactive)
7,c1ccc(C(Cc2nc(-c3ccncc3)no2)c2ccccc2)cc1,> 55.7 µM (inactive)
8,Cc1cc(OCC(=O)Nc2ccncc2)ccc1Br,> 55.7 µM (inactive)
9,Cc1cccc(N2CCN(C(=O)CSCc3c(C)noc3C)CC2)c1C,> 55.7 µM (inactive)
10,COc1ccc(C(=O)Nc2ccc3oc(Cc4ccc(Cl)cc4)nc3c2)cc1OC,> 55.7 µM (inactive)
11,COc1cccc(-c2cc(C(=O)Nc3cccc(O)c3)no2)c1,inactive
12,Oc1ccc(-c2n[nH]c(=S)n2-c2ccc3c(c2)OCCO3)c(O)c1,> 55.7 µM (inactive)
13,CNC(=O)Oc1cccc(-c2cn3cc(Cl)ccc3n2)c1,inactive
14,Cc1cccc(C)c1NC(=O)N1CCN(c2nc3ccccc3s2)CC1,> 55.7 µM (inactive)
15,Nc1c(C(=O)NC2CCCCC2)nsc1C(=O)OCC(=O)NC1CCCCC1,> 55.7 µM (inactive)
16,COC(=O)c1cccc(NC(=O)CSc2nc3cccnc3n2C)c1,> 55.7 µM (inactive)
17,Cc1nn2cc(-c3ncc(C(F)(F)F)cc3Cl)cnc2c1Br,inactive
18,CCCOc1ccc(/C=N/NC(=S)Nc2ccccc2[N+](=O)[O-])c(O)c1,> 55.7 µM (inactive)
19,CCCCCCCc1ccc(-c2ccc(O)cc2)nc1,> 55.7 µM (inactive)
20,CCOC(=O)Cc1csc(SCC(=O)c2c(N)n(CC(C)C)c(=O)n(C)c2=O)n1,> 55.7 µM (inactive)
21,NNC(=O)c1cccc(COc2ccccc2Br)c1,inactive
22,Cc1ccc(N2C(=O)c3ccccc3C2O)nc1 (stereo not drawn),inactive
23,COc1ccc(C)cc1-n1nnnc1SCn1nnc2ccccc2c1=O,> 55.7 µM (inactive)
